In article PMC8736263 (European journal of pharmacology, 2021) one finds Ki data, which are given here for one compound.

Molecules are shown by their SMILES.

For assay [1], the target named is T1, sigma-2 receptor/transmembrane protein 97 (TMEM97) (Rattus norvegicus, UniProt Q5U3Y7).
T1 sequence (Q5U3Y7 1-176): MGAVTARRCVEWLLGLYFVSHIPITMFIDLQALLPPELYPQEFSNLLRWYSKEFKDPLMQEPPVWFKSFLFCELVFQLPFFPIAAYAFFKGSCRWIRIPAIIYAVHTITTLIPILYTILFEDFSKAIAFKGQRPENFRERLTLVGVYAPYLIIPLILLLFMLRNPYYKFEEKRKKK
Kind of assay: radioligand competition with [3H]DTG plus […]. The assay is classed as binding. (In general: Loss of bound radioactivity is the signal in a displacement assay; it reports binding, not function.)

For the next assay, the target named is sigma-1 receptor (Rattus norvegicus, UniProt Q9R0C9). Description: radioligand competition with [3H]-. The assay is classed as binding.
sigma-1 receptor, sequence (Q9R0C9 whole entry): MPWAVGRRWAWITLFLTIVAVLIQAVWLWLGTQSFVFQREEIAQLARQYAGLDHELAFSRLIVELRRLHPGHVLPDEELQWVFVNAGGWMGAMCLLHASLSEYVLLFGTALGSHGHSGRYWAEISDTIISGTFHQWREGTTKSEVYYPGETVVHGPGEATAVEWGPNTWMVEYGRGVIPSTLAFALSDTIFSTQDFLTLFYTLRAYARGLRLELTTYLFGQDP

What is called Ki is the equilibrium dissociation constant of an inhibitor or competing ligand from its target.

Turning to `O=c1oc2cc(NC(=S)Nc3ccc4c(c3)oc(=O)n4CCCCN3CCN(c4ccc(F)cc4)CC3)ccc2n1CCCCN1CCN(c2ccc(F)cc2)CC1` [MAM03055A, 1,3-bis(3-(4-(4-(4-fluorophenyl)piperazin-1-yl)butyl)-2-oxo-2,3-dihydrobenzo[d]oxazol-6-yl)thiourea], the inhibition constant Ki turned out to be 55.9 nM in assay [1] and 3.37 µM on sigma-1 receptor.
